Data on five compounds can be found in paper PMC5908784, “Extracellular loops 2 and 3 of the calcitonin receptor selectively modify agonist binding and efficacy” (Biochemical Pharmacology, 2018).

Usually Emax stands for the greatest response seen or fitted, relative to the assay's reference. Broadly, the EC50 is the concentration giving half of the maximal effect.

Numbering of substitutions follows the chain as printed. Where a SMILES comes first, the peptide text is derived from it. Bridges are numbered along the chain shown (N, C = ends).

Common to all, as to test: cAMP accumulation
Common to all, as to format: cell-based
A general note: Cyclic AMP is a second messenger, typically raised through Gs and lowered through Gi signalling.

One experiment addresses T1, hCTR C289A (Homo sapiens, UniProt P30988, C289A).
T1 construct: c-Myc (N); expressed in transfected cells
T1 sequence (P30988 25-474 C289A): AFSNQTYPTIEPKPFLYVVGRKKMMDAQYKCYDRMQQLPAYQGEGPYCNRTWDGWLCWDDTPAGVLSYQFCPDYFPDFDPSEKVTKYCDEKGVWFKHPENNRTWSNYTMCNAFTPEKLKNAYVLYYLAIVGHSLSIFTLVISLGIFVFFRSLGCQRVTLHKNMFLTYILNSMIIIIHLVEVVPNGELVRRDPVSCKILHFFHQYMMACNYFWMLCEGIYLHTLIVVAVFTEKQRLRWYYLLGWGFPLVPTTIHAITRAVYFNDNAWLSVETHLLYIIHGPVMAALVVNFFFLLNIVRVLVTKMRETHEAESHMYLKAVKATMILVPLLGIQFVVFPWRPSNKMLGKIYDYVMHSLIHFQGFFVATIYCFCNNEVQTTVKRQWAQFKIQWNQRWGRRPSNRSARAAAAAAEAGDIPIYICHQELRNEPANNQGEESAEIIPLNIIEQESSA
As to conditions: mean ± S.E.M.; for Emax: cAMP maximal response, SEM. The method, boiled down:
(§1)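 For each mutant, cAMP generated during a 30 min ligand exposure with IBMX is reported as a fraction of the 100 μM forskolin maximum. Cells were ethanol-extracted and dried at room temperature prior to measurement.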

A further experiment deals with T2, hCTR F285A (Homo sapiens, UniProt P30988, F285A).
T2 construct: expressed in transfected cells
T2 sequence (P30988 25-474 F285A): T1 sequence (P30988 25-474 C289A) with F261A, A265C
Particulars: mean ± S.E.M.; for Emax: cAMP maximal response, SEM; for EC50: cAMP, CV1-FlpIn cells, 30 min, IBMX. The method, boiled down: as §1

The target of the next experiment is T3, hCTR P360A (Homo sapiens, UniProt P30988, P360A).
T3 construct: expressed in transfected cells
T3 sequence (P30988 25-474 P360A): T1 sequence (P30988 25-474 C289A) with A265C, P336A
As to conditions: mean ± S.E.M.; for Emax: cAMP maximal response, SEM; for EC50: cAMP, CV1-FlpIn cells, 30 min, IBMX. The method, boiled down: as §1

For another experiment, the target named is T4, hCTR R281A (Homo sapiens, UniProt P30988, R281A).
T4 construct: expressed in transfected cells
T4 sequence (P30988 25-474 R281A): T1 sequence (P30988 25-474 C289A) with R257A, A265C
Particulars: mean ± S.E.M.; for Emax: cAMP maximal response, SEM; for EC50: cAMP, CV1-FlpIn cells, 30 min, IBMX. Put shortly: as §1

A further experiment has as its target T5, hCTR Y374A (Homo sapiens, UniProt P30988, Y374A).
T5 construct: c-Myc (N); expressed in transfected cells
T5 sequence (P30988 25-474 Y374A): T1 sequence (P30988 25-474 C289A) with A265C, Y350A
Particulars: mean ± S.E.M.; for Emax: cAMP maximal response, SEM; for EC50: cAMP, CV1-FlpIn cells, 30 min, IBMX. Put shortly: as §1

Take `CC[C@H](C)[C@H](NC(=O)[C@H](C)NC(=O)[C@@H](NC(=O)[C@H](CCC(N)=O)NC(=O)[C@@H]1CCCN1C(=O)[C@H](Cc1ccccc1)NC(=O)[C@@H](NC(=O)[C@H](Cc1c[nH]cn1)NC(=O)[C@H](Cc1ccccc1)NC(=O)[C@H](CCCCN)NC(=O)[C@H](CC(N)=O)NC(=O)[C@H](Cc1ccccc1)NC(=O)[C@H](CC(=O)O)NC(=O)[C@H](CCC(N)=O)NC(=O)[C@@H](NC(=O)[C@H](Cc1ccc(O)cc1)NC(=O)[C@@H](NC(=O)CNC(=O)[C@H](CC(C)C)NC(=O)[C@H](CCSC)NC(=O)[C@@H]1CSSC[C@H](N)C(=O)NCC(=O)N[C@@H](CC(N)=O)C(=O)N[C@@H](CC(C)C)C(=O)N[C@@H](CO)C(=O)N[C@@H]([C@@H](C)O)C(=O)N1)[C@@H](C)O)[C@@H](C)O)[C@@H](C)O)[C@@H](C)O)C(=O)NCC(=O)N[C@H](C(=O)NCC(=O)N[C@@H](C)C(=O)N1CCC[C@H]1C(N)=O)C(C)C` [hCT]: the maximal response (Emax) at hCTR C289A stood at 148 ± 7%; at hCTR F285A it was 105 ± 11%; on hCTR P360A it was 152 ± 8%; on hCTR R281A it was 117 ± 15%; at hCTR Y374A, 83.2 ± 5%.

In the case of `CC(C)C[C@H](NC(=O)CNC(=O)[C@H](C)NC(=O)[C@H](CC(C)C)NC(=O)[C@H](CCCNC(=N)N)NC(=O)[C@H](Cc1cnc[nH]1)NC(=O)[C@@H](NC(=O)[C@@H](NC(=O)[C@@H]1CSSC[C@H](NC(=O)[C@H](C)N)C(=O)N[C@@H](CC(=O)O)C(=O)N[C@@H]([C@@H](C)O)C(=O)N[C@@H](C)C(=O)N[C@@H]([C@@H](C)O)C(=O)N1)C(C)C)[C@@H](C)O)C(=O)N[C@@H](CC(C)C)C(=O)N[C@@H](CO)C(=O)N[C@@H](CCCNC(=N)N)C(=O)N[C@@H](CO)C(=O)NCC(=O)NCC(=O)N[C@H](C(=O)N[C@H](C(=O)N[C@@H](CCCCN)C(=O)N[C@@H](CC(N)=O)C(=O)N[C@@H](CC(N)=O)C(=O)N[C@@H](Cc1ccccc1)C(=O)N[C@H](C(=O)N1CCC[C@H]1C(=O)N[C@H](C(=O)N[C@@H](CC(N)=O)C(=O)N[C@H](C(=O)NCC(=O)N[C@@H](CO)C(=O)N[C@@H](CCCCN)C(=O)N[C@@H](C)C(=O)N[C@@H](Cc1ccccc1)C(N)=O)C(C)C)[C@@H](C)O)C(C)C)C(C)C)C(C)C` [hαCGRP], the Emax at hCTR F285A stood at 122 ± 18%; on hCTR P360A, 48 ± 5%; on hCTR R281A, 114 ± 25%; on hCTR Y374A, 82 ± 12%. Besides, the EC50 was 15.8 nM on hCTR F285A, 17.4 nM on hCTR P360A, 38.9 nM at hCTR R281A and 25.1 nM on hCTR Y374A.

For the compound `CSCC[C@H](NC(=O)CNC(=O)[C@H](CO)NC(=O)[C@H](Cc1ccccc1)NC(=O)[C@H](CCCNC(=N)N)NC(=O)[C@H](Cc1c[nH]cn1)NC(=O)[C@H](Cc1ccccc1)NC(=O)[C@H](CC(N)=O)NC(=O)[C@H](CC(N)=O)NC(=O)[C@H](CC(C)C)NC(=O)[C@H](CC(N)=O)NC(=O)[C@H](CCCNC(=N)N)NC(=O)[C@H](Cc1c[nH]c2ccccc12)NC(=O)[C@H](Cc1ccc(O)cc1)NC(=O)[C@H](C)NC(=O)[C@H](CO)NC(=O)[C@H](CC(C)C)NC(=O)[C@@H](NC(=O)[C@@H]1CSSC[C@H](N)C(=O)N[C@@H](CO)C(=O)N[C@@H](CC(N)=O)C(=O)N[C@@H](CC(C)C)C(=O)N[C@@H](CO)C(=O)N[C@@H]([C@@H](C)O)C(=O)N1)C(C)C)C(=O)NCC(=O)N[C@@H](Cc1ccccc1)C(=O)NCC(=O)N1CCC[C@H]1C(=O)N[C@@H](CCC(=O)O)C(=O)N[C@H](C(=O)N1CCC[C@H]1C(N)=O)[C@@H](C)O` [pCT] (H-CSNLSTCVLSAYWRNLNNFHRFSGMGFGPETP-NH2; disulfide 1-7), the Emax at hCTR C289A stood at 115 ± 7%; on hCTR F285A, 81 ± 10%; at hCTR P360A, 146 ± 13%; on hCTR R281A, 147 ± 16%; on hCTR Y374A, 90 ± 9%. Also, the EC50 on hCTR C289A (cAMP, CV1-FlpIn cells, 30 min, IBMX) is 1.02 nM; on hCTR F285A it was 0.0501 nM; at hCTR P360A, 0.132 nM; on hCTR R281A it was 0.646 nM; at hCTR Y374A, 0.02 nM.

Consider `CC(C)C[C@H](NC(=O)[C@H](CC(N)=O)NC(=O)[C@H](CC(N)=O)NC(=O)[C@H](CO)NC(=O)[C@H](CO)NC(=O)[C@H](CCCNC(=N)N)NC(=O)[C@@H](NC(=O)[C@H](CC(C)C)NC(=O)[C@H](Cc1ccccc1)NC(=O)[C@H](CC(N)=O)NC(=O)[C@H](C)NC(=O)[C@H](CC(C)C)NC(=O)[C@H](CCCNC(=N)N)NC(=O)[C@H](CCC(N)=O)NC(=O)[C@@H](NC(=O)[C@H](C)NC(=O)[C@@H]1CSSC[C@H](NC(=O)[C@@H](N)CCCCN)C(=O)N[C@@H](CC(N)=O)C(=O)N[C@@H]([C@@H](C)O)C(=O)N[C@@H](C)C(=O)N[C@@H]([C@@H](C)O)C(=O)N1)[C@@H](C)O)C(C)C)C(=O)NCC(=O)N1CCC[C@H]1C(=O)N[C@H](C(=O)N[C@@H](CC(C)C)C(=O)N1CCC[C@H]1C(=O)N1CCC[C@H]1C(=O)N[C@H](C(=O)N[C@@H](CC(N)=O)C(=O)N[C@H](C(=O)NCC(=O)N[C@@H](CO)C(=O)N[C@@H](CC(N)=O)C(=O)N[C@H](C(=O)N[C@@H](Cc1ccc(O)cc1)C(N)=O)[C@@H](C)O)C(C)C)[C@@H](C)O)C(C)C` [rAmy], for which the Emax is 89 ± 23% at hCTR C289A; 92 ± 9% on hCTR F285A; 115 ± 13% at hCTR P360A; 63 ± 14% at hCTR R281A; 92 ± 9% on hCTR Y374A.

On to `CC(C)C[C@H](NC(=O)[C@H](CCCCN)NC(=O)CNC(=O)[C@H](CC(C)C)NC(=O)[C@@H](NC(=O)[C@@H]1CSSC[C@H](N)C(=O)N[C@@H](CO)C(=O)N[C@@H](CC(N)=O)C(=O)N[C@@H](CC(C)C)C(=O)N[C@@H](CO)C(=O)N[C@@H]([C@@H](C)O)C(=O)N1)C(C)C)C(=O)N[C@@H](CO)C(=O)N[C@@H](CCC(N)=O)C(=O)N[C@@H](CCC(=O)O)C(=O)N[C@@H](CC(C)C)C(=O)N[C@@H](Cc1c[nH]cn1)C(=O)N[C@@H](CCCCN)C(=O)N[C@@H](CC(C)C)C(=O)N[C@@H](CCC(N)=O)C(=O)N[C@H](C(=O)N[C@@H](Cc1ccc(O)cc1)C(=O)N1CCC[C@H]1C(=O)N[C@@H](CCCNC(=N)N)C(=O)N[C@H](C(=O)N[C@@H](CC(N)=O)C(=O)N[C@H](C(=O)NCC(=O)N[C@@H](CO)C(=O)NCC(=O)N[C@H](C(=O)N1CCC[C@H]1C(N)=O)[C@@H](C)O)[C@@H](C)O)[C@@H](C)O)[C@@H](C)O` [sCT], for which the Emax at hCTR C289A is 140 ± 7%; at hCTR F285A, 105 ± 8%; at hCTR P360A, 100 ± 5%; at hCTR R281A, 119 ± 5%; on hCTR Y374A it was 96 ± 5%.
